Results on 14 molecules are retold here after paper PMC6009873, “Discovery of novel dual inhibitors of receptor tyrosine kinases EGFR and PDGFR-β related to anticancer drug resistance” (Journal of Enzyme Inhibition and Medicinal Chemistry, 2017).

One experiment addresses T1, PDGFR-β (Homo sapiens, UniProt P09619).
T1 construct: GST; made in house; host or cells: Sf9 insect cells (baculovirus)
Description: Receptor tyrosine kinase inhibition, [γ-33P]-ATP competition FlashPlate assay. The settings on record: for Ki / Ki values PDGFR-β: Ki determined from IC50, competitive binding mode, 15 µM ATP, Km ATP 0.989 µM, n.a. = not active. The experiment is classed as biochemical. The protocol:
(§1) The protein kinases were expressed by means of the baculovirus expression system in Sf9 insect cells as human recombinant GST fusion proteins and purified by affinity chromatography using GSH-agarose. The kinase identity was confirmed by mass spectrometry using LC-ESI-MS/MS technique.
The measuring of protein kinase activity was performed in 96-well FlashPlates^TM from Perkin Elmer in a 50 µL reaction volume. The reaction mixture consisted of 20 µL of assay buffer solution, 5 µL of ATP solution in water, 5 µL of used test compound in a 10% dmso solution and, finally, a premixture of each 10 µL of used substrate and enzyme solutions. The assay buffer solution contained 70 mM of HEPES-NAOH pH 7.5, each 3 mM of magnesium chloride and manganese(II) chloride, 3 µM of sodium orthovanadate, 1.2 mM of DTT, 50 µg/mL of PEG20000 and finally 15 µM of [γ-^33 P]-ATP making approximately 9 × 10^5 cpm per well. The final kinase concentration has been 10 ng/50 µL for EGFR and 20 ng/50 µL for PDGFR-β. The substrate was Poly(Glu,Tyr)4:1 for EGFR and Poly(Ala, Glu, Lys, Tyr)6:2:5.1 for PDFGR-β, both used in a concentration of 125 ng/50 µL. The reaction mixtures were incubated at 30 °C for 60 min. The reaction was stopped with 50 µL of a 2% (v/v) solution of phosphoric acid. Then the plates were aspirated and washed twice with 200 µL of water and a 0.9% solution of sodium chloride. The incorporation of ^33 P was determined with a microplate scintillation counter. Ten different inhibitor concentrations were measured in a range of 3 nM to 100 µM. The residual activity (%) and the IC50 values were finally calculated. From the IC50 values the affinity constants Ki were determined using the equation: IC50 =1/2 [Etotal]+Ki × (1 + [S]/Km) following a competitive inhibitor binding mode[19] (Table 1). The used Km values for ATP have been measured with 1.3 µM for EGFR and with 0.989 µM for PDGFR-β.

Another experiment deals with T2, EGFR (Homo sapiens, UniProt P00533).
T2 construct: GST; made in house; host or cells: Sf9 insect cells (baculovirus)
Described as above. The experiment is classed as biochemical. Conditions: Ki determined from IC50, competitive binding mode, 15 µM ATP, Km ATP 1.3 µM; n.a. = not active. The protocol: as §1
The measuring of protein kinase activity was performed in 96-well FlashPlates^TM from Perkin Elmer in a 50 µL reaction volume. The reaction mixture consisted of 20 µL of assay buffer solution, 5 µL of ATP solution in water, 5 µL of used test compound in a 10% dmso solution and, finally, a premixture of each 10 µL of used substrate and enzyme solutions. […] The final kinase concentration has been 10 ng/50 µL for EGFR and 20 ng/50 µL for PDGFR-β. […] The reaction mixtures were incubated at 30 °C for 60 min. The reaction was stopped with 50 µL of a 2% (v/v) solution of phosphoric acid. Then the plates were aspirated and washed twice with 200 µL of water and a 0.9% solution of sodium chloride. The incorporation of ^33 P was determined with a microplate scintillation counter. Ten different inhibitor concentrations were measured in a range of 3 nM to 100 µM. The residual activity (%) and the IC50 values were finally calculated.

Experiment [1] has as its system NCI-H322M non-small cell lung cancer cell line. Description: Cellular growth inhibition assay (NCI, SRB staining). The experiment is classed as cell-based. The settings on record: Homo sapiens, 48 h, read-out: Compound growth inhibition. The protocol:
(§2) Cells were inoculated into 96 well microtiter plates in […] at plate densities ranging from 5000 to 40.000 cells per well depending from the individual cell doubling time. Then the cell- containing plates were incubated at 37 °C under an air atmosphere containing 5% of carbon dioxide and with a relative humidity for 24 h. After that time two plates of each cell line were fixed in situ with TCA as control before drug addition. Then the drug containing dmso stock solutions were used and mixed with the cell culture medium containing […] of gentamicin. Aliquots of […] of the respective dilution were added to the preincubated plates reaching a final drug concentration of 10 µM. The plates were incubated again under the preincubation conditions as described for 48 h. Then cells were fixed under addition of 50 ml of a cold 50% solution of TCA reaching a final concentration of 10% TCA. Incubation continued for 60 min at 4 °C. The supernatant was discarded and the plates were washed with water for five times and dried at air. Then a sulforhodamine (SRB) solution (0.4%) in acetic acid (1%) was added to each well and plates were incubated again for 10 min. The unbound dye was removed by washing for five times with an acetic acid solution (1%) and the plates were dried at air. The bound stain was solubilised with a […] solution of trizma base and the absorbance was measured with a plate reader at a wavelength of 515 nm. The growth inhibition measured as lowered net protein increase after SRB staining was determined in relation to the untreated control cells (Table 2).
(§3) In first screening studies carried out with an initial concentration of 10 µM by the National Cancer Institute of Health (NCI) the growth inhibition of respective non-small cell lung cancer (NSCLC) cell lines and of prostate cancer cell lines was determined.
For orientation: In SRB staining, fixed cells bind dye roughly in proportion to their protein.

Experiment [2] has as its system EKV X non-small cell lung cancer cell line. Described as above. The experiment is classed as cell-based. Conditions: Homo sapiens, EKVX, 48 h, read-out: Compound growth inhibition. The protocol: as §2, §3
In experiment [3] the test system is NCI-H23 non-small cell lung cancer cell line. The description is as above. The format is cell-based. The settings on record: Homo sapiens; NCI-H23, 10 µM, 48 h; read-out: Compound growth inhibition. The protocol: as §2, §3
Experiment [4] deals with PC-3 prostate cancer cell line. The experiment is described as above. Conditions: Homo sapiens; PC-3, 10 µM, 48 h; read-out: Compound growth inhibition. The experiment is classed as cell-based. The protocol:
as §2, §3

For experiment [5], the system named is DU-145 prostate cancer cell line. Described as above. The experiment is classed as cell-based. The settings on record: Homo sapiens; DU-145, 10 µM, 48 h; read-out: Compound growth inhibition. The protocol:
as §2, §3

Experiment [6] deals with prostate cancer cell lines. As to the kind of experiment: Cellular growth inhibition assay (NCI, SRB staining), span over the cell lines. The format is cell-based. Conditions: Homo sapiens; span over PC-3 and DU-145, 10 µM; read-out: growth inhibition rates in the prostate cancer cell lines. The protocol:
as §2, §3

For the next experiment, the system named is NSCLC cell lines. The description is as above. The settings on record: Homo sapiens, span over EKV X, NCI-H23, NCI-H322M, read-out: growth inhibition rates in the NSCLC cell lines. The experiment is classed as cell-based. The protocol: as §2, §3
For experiment [7], the system named is PC-3 prostate cancer cell line. Further details: method as in PMID 19179890, PMID 16926630. The settings on record: PC-3, reported for comparison; cited from earlier work.
Experiment [8] relates to DU-145 prostate cancer cell line. Further details: method as in PMID 19179890, PMID 16926630. The settings on record: DU-145, reported for comparison; cited from earlier work.
For experiment [9], the system named is NCI-H23 non-small cell lung cancer cell line. Further details: method as in PMID 19179890, PMID 16926630. The settings on record: NCI-H23, reported for comparison; cited from earlier work.

Molecules are shown by their SMILES.

T2 sequence (P00533 25-1210): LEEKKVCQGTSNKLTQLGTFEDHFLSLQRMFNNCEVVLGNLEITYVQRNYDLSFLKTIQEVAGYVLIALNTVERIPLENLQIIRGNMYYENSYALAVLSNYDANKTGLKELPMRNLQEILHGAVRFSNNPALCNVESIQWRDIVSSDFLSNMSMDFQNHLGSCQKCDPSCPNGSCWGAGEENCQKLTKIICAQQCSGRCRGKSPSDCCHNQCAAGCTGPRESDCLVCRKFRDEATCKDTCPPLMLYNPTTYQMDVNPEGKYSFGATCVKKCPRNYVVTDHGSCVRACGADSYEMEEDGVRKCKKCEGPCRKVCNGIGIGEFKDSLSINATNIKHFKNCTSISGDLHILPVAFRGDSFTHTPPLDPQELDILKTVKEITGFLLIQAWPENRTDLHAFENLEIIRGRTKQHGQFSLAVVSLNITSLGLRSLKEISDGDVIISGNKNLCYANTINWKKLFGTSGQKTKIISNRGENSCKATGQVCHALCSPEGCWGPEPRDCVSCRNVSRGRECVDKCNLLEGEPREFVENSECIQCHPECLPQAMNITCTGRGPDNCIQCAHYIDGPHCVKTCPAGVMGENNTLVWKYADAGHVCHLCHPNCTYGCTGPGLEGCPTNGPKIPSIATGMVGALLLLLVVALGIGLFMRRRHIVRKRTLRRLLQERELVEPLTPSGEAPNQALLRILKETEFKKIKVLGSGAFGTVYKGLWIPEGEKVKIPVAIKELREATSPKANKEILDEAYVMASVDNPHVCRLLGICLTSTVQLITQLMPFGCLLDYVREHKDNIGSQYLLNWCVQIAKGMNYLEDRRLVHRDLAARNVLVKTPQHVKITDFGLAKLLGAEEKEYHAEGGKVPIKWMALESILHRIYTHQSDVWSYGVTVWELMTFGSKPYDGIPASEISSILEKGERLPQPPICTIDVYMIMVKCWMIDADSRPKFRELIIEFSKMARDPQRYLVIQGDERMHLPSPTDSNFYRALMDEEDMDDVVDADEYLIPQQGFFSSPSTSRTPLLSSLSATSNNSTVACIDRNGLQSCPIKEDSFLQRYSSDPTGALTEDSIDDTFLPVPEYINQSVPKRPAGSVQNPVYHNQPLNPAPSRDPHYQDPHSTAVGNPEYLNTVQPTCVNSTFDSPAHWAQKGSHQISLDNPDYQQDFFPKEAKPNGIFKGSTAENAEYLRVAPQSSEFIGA
T1 sequence (P09619 33-1106): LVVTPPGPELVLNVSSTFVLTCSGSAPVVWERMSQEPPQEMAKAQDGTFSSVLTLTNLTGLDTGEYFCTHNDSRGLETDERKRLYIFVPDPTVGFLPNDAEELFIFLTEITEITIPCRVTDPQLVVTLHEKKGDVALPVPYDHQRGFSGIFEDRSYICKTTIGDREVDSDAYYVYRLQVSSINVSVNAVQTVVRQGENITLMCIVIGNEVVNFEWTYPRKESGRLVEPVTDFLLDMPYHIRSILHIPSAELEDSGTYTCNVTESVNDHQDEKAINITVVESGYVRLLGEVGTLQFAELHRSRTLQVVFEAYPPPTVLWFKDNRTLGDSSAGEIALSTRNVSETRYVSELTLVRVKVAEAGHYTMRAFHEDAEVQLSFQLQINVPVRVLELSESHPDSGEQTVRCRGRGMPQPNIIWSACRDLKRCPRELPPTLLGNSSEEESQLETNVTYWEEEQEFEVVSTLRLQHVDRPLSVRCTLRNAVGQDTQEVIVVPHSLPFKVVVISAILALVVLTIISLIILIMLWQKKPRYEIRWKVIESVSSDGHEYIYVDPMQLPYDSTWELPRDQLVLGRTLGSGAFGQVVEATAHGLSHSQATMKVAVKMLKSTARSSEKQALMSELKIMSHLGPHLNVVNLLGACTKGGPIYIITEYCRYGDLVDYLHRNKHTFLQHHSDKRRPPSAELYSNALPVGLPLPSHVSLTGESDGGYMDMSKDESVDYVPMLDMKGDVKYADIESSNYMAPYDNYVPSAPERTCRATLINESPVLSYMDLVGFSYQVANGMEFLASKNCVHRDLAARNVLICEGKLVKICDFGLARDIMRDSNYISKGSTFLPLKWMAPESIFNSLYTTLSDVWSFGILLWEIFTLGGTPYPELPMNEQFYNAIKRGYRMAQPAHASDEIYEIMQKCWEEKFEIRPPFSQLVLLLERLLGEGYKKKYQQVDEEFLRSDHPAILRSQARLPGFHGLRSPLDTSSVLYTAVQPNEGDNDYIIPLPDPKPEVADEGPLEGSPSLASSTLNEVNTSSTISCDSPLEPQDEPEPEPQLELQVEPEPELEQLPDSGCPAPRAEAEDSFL

What is called Ki is a measure of affinity in units of concentration, obtained from inhibition or displacement. A high value points to weaker binding. For the molecule `Oc1ccc2[nH]c3ncnc(Nc4ccc(OCc5cccc(F)c5)cc4)c3c2c1` [Compound 5m], the values for the Ki on PDGFR-β and on EGFR were 3660 ± 210 nM and 189 ± 27 nM, respectively. Also, at PDGFR-β (compared to the 2-amino compound 5k), the “decrease in the PDGFR-β affinity by a factor” value is given as “fifty”.

In the case of `Nc1nc(Nc2ccc(Br)cc2)c2c(n1)[nH]c1ccc(O)cc12` [Compound 5h, 2-Amino-4-((4-bromophenyl)amino)-9H-pyrimido[4,5-b]indol-6-ol], the Ki at PDGFR-β came out at 3230 ± 195 nM; at EGFR, 475 ± 143 nM.

On to `CC(C)Oc1ccc(Nc2nc(N)nc3[nH]c4ccc(O)cc4c23)cc1` [Compound 5e, 2-Amino-4-((4-isopropoxyphenyl)amino)-9H-pyrimido[4,5-b]indol-6-ol], for which the Ki is 1940 ± 218 nM on PDGFR-β and 574 ± 110 nM at EGFR.

For the molecule `COc1ccc(COc2ccc(Nc3nc(N)nc4[nH]c5ccc(O)cc5c34)cc2Cl)cc1` [Compound 5l, 2-Amino-4-((3-chloro-4-((4-methoxybenzyl)oxy)phenyl)amino)-9H-pyrimido[4,5-b]indol-6-ol], the Ki at PDGFR-β is 213 ± 35 nM; at EGFR it was 103 ± 37 nM.

The inhibition is how much of the control response was suppressed. With `COc1ccc(COc2ccc(Nc3nc(N)nc4[nH]c5ccc(O)cc5c34)cc2)cc1` [Compound 5i], the inhibition at 10 µM in [1] is 1%; in experiment [2], 29%; in experiment [3] it was 9%; in experiment [4], 25%; in [5] it was 15%; in experiment [6] it was 15 to 25%. The inhibition at 10 µM in the experiment with NSCLC cell lines fell in the range of 1 to 29%. Further, the Ki at PDGFR-β is 72 ± 15 nM; on EGFR, 413 ± 111 nM.

For the molecule `C#Cc1ccc(Nc2nc(N)nc3[nH]c4ccc(O)cc4c23)cc1` [Compound 5f, 2-Amino-4-((4-ethinylphenyl)amino)-9H-pyrimido[4,5-b]indol-6-ol], the “Ki values PDGFR-β” value on PDGFR-β is “not active”. Besides, the inhibitory constant (Ki) on EGFR came out at 421 ± 66 nM.

`Nc1nc(Nc2ccc(Cl)cc2)c2c(n1)[nH]c1ccc(O)cc12` [Compound 5g, 2-Amino-4-((4-chlorophenyl)amino)-9H-pyrimido[4,5-b]indol-6-ol]: the “Ki values PDGFR-β” value on PDGFR-β is listed as “not active”. At EGFR, this molecule registered a Ki of 686 ± 82 nM.

Take `C#Cc1cccc(Nc2ncnc3cc(OCCOC)c(OCCOC)cc23)c1` [erlotinib]: the growth inhibition rate was 40% in [7], 45% in experiment [8] and 20% in [9].

Consider `Nc1nc(Nc2ccc(OCc3cccc(F)c3)cc2)c2c(n1)[nH]c1ccc(O)cc12` [Compound 5k], for which the inhibition at 10 µM in [1] was 96%; in experiment [2] it was 90%; in experiment [3], 93%; in experiment [4], 95%; in [5], 90%. The Ki at PDGFR-β was found to be 81 ± 10 nM; on EGFR it was 170 ± 85 nM.

On PDGFR-β, `CC(C)Oc1cccc(Nc2nc(N)nc3[nH]c4ccc(O)cc4c23)c1` [Compound 5b, 2-Amino-4-((3-isopropoxyphenyl)amino)-9H-pyrimido[4,5-b]indol-6-ol] showed an inhibitory constant (Ki) of 2750 ± 184 nM. For the same molecule, the “Ki values EGFR” value on EGFR is recorded as “lost”.

In the case of `CCOc1cccc(Nc2nc(N)nc3[nH]c4ccc(O)cc4c23)c1` [Compound 5a, 2-Amino-4-((3-ethoxyphenyl)amino)-9H-pyrimido[4,5-b]indol-6-ol], the inhibition at 10 µM was 35% in experiment [1]; 71% in experiment [2]; 32% in [3]; 25% in experiment [4]; 51% in experiment [5]; 32 to 71% with NSCLC cell lines. The “Ki values PDGFR-β” value at PDGFR-β is reported as “not active”. Besides, at EGFR, affinity was put at a Ki of 181 ± 14 nM.

For the molecule `CCOc1ccc(Nc2nc(N)nc3[nH]c4ccc(O)cc4c23)cc1` [Compound 5d, 2-Amino-4-((4-ethoxyphenyl)amino)-9H-pyrimido[4,5-b]indol-6-ol], the Ki was determined as 1910 ± 150 nM at PDGFR-β and 935 ± 84 nM on EGFR.

For the molecule `C#Cc1cccc(Nc2nc(N)nc3[nH]c4ccc(O)cc4c23)c1` [Compound 5c, 2-Amino-4-((3-ethinylphenyl)amino)-9H-pyrimido[4,5-b]indol-6-ol], the values for the Ki at PDGFR-β and at EGFR were 3530 ± 200 nM and 149 ± 66 nM, respectively.

Turning to `COc1cccc(COc2ccc(Nc3nc(N)nc4[nH]c5ccc(O)cc5c34)cc2)c1` [Compound 5j], the Ki is 209 ± 15 nM at PDGFR-β and 132 ± 99 nM on EGFR.
